Experimental data from patent publication EP1183044B1, “ADJUVANT COMBINATIONS FOR IMMUNIZATION AND VACCINES” (priority 1999, dated 2000).
Where two headings read alike, the source gives them in different places.

Test system: M.tuberculosis (Erdman)
Assay type: in vivo
Conditions: ESAT-6 10 µg/dose three times

| Molecule | Log10 resistance Lung, Experiment I (log10 reduction of bacterial load in lung 6 weeks after aerosol challenge) | Log10 resistance Spleen, Experiment I (log10 reduction of bacterial load in spleen 6 weeks after aerosol challenge) | Log10 resistance Lung, Experiment I ([…]) | Log10 resistance Spleen, Experiment I ([…]) |
| --- | --- | --- | --- | --- |
| monophosphoryl lipid A [MPL] | < 0.05 log10 | <0.05 log10 | – | – |
| CCCCCCCCCCCCCCCCCC[N+](C)(C)CCCCCCCCCCCCCCCCCC.[Br-] [DDA, dimethyl dioctadecyl ammonium bromide] | – | – | < 0.05 log10 | <0.05 log10 |
